Results: the NIST ThermoML archive (doi:10.1016/j.jct.2015.03.023)
Values joined by “and” are separate entries in the source; they are usually repeats but may differ in a detail not shown here. Equal values may be shown once. Numbers after ± are expanded uncertainties.

Tests used:
[1] = Liquid; for speed of sound / mass density: 101.33 kPa; for speed of sound: Sing-around technique in a fixed-path interferometer; for mass density: Vibrating tube method; for vapor or sublimation pressure: Ebulliometric method (Recirculating still)
[2] = refractive index (Na D-line) (dimensionless); settings: 101.33 kPa, Liquid, Standard Abbe refractometry
[3] = refractive index (Na D-line) (dimensionless); xn = mol fraction of the nth substance listed; settings: 101.22 kPa, Liquid, Standard Abbe refractometry

## CCCCn1cc[n+](C)c1.[I-] [1-butyl-3-methylimidazolium iodide]
[1]; 293.15 K
  speed of sound: 1508.1 ± 1.6 m/s
  mass density: 1483.5 ± 0.7 kg/m3
[1]; 298.15 K
  speed of sound: 1497.5 ± 1.6 m/s
  mass density: 1479.6 ± 0.7 kg/m3
[1]; 308.15 K
  speed of sound: 1473.3 ± 1.6 m/s
  mass density: 1471.7 ± 0.6 kg/m3
[2]; 293.15 K
  refractive index: 1.5825 ± 0.0011
[2]; 298.15 K
  refractive index: 1.581 ± 0.0011
[2]; 308.15 K
  refractive index: 1.5781 ± 0.0011

## CCCCn1cc[n+](C)c1.[I-] [1-butyl-3-methylimidazolium iodide] + CCCCO
[3]; 293.15 K, x1 = 0.311
  refractive index: 1.4864 ± 0.0006
[3]; 293.15 K, x1 = 0.381
  refractive index: 1.5007 ± 0.0005
[3]; 293.15 K, x1 = 0.51
  refractive index: 1.5237 ± 0.0005
[3]; 293.15 K, x1 = 0.574
  refractive index: 1.5339 ± 0.0005
[3]; 293.15 K, x1 = 0.623
  refractive index: 1.541 ± 0.0005
[3]; 293.15 K, x1 = 0.802
  refractive index: 1.5634 ± 0.0005
[3]; 293.15 K, x1 = 0.85
  refractive index: 1.5686 ± 0.0004
[3]; 293.15 K, x1 = 1
  refractive index: 1.5825 ± 0.0004
[3]; 298.15 K, x1 = 0.108
  refractive index: 1.4332 ± 0.0007
[3]; 298.15 K, x1 = 0.171
  refractive index: 1.4508 ± 0.0006
[3]; 298.15 K, x1 = 0.311
  refractive index: 1.4848 ± 0.0006
[3]; 298.15 K, x1 = 0.381
  refractive index: 1.4991 ± 0.0005
[3]; 298.15 K, x1 = 0.51
  refractive index: 1.5221 ± 0.0005
[3]; 298.15 K, x1 = 0.574
  refractive index: 1.5322 ± 0.0005
[3]; 298.15 K, x1 = 0.623
  refractive index: 1.5393 ± 0.0005
[3]; 298.15 K, x1 = 0.802
  refractive index: 1.5618 ± 0.0005
[3]; 298.15 K, x1 = 0.85
  refractive index: 1.567 ± 0.0004
[3]; 298.15 K, x1 = 1
  refractive index: 1.581 ± 0.0004
[3]; 308.15 K, x1 = 0.108
  refractive index: 1.4294 ± 0.0007
[3]; 308.15 K, x1 = 0.171
  refractive index: 1.4472 ± 0.0006
[3]; 308.15 K, x1 = 0.311
  refractive index: 1.4815 ± 0.0006
[3]; 308.15 K, x1 = 0.381
  refractive index: 1.4958 ± 0.0005
[3]; 308.15 K, x1 = 0.51
  refractive index: 1.5189 ± 0.0005
[3]; 308.15 K, x1 = 0.574
  refractive index: 1.5289 ± 0.0005
[3]; 308.15 K, x1 = 0.623
  refractive index: 1.5361 ± 0.0005
[3]; 308.15 K, x1 = 0.802
  refractive index: 1.5587 ± 0.0005
[3]; 308.15 K, x1 = 0.85
  refractive index: 1.5639 ± 0.0004
[3]; 308.15 K, x1 = 1
  refractive index: 1.5781 ± 0.0004

## CCCCO [butan-1-ol] + CCCCn1cc[n+](C)c1.[I-]
[3]; 293.15 K, x2 = 0
  refractive index: 1.3992 ± 0.0004
[3]; 298.15 K, x2 = 0
  refractive index: 1.3973 ± 0.0004
[3]; 308.15 K, x2 = 0
  refractive index: 1.3932 ± 0.0004

## CCCCO [butan-1-ol]
[1]; 293.15 K
  speed of sound: 1256.3 ± 1.3 m/s
  mass density: 809.8 ± 0.2 kg/m3
[1]; 298.15 K
  speed of sound: 1239.5 ± 1.3 m/s
  mass density: 805.9 ± 0.2 kg/m3
[1]; 308.15 K
  speed of sound: 1205.9 ± 1.3 m/s
  mass density: 798.2 ± 0.2 kg/m3
[1]; 353.15 K
  vapor or sublimation pressure: 21.19 ± 0.49 kPa
[1]; 363.15 K
  vapor or sublimation pressure: 33.8 ± 0.74 kPa
[1]; 373.15 K
  vapor or sublimation pressure: 51.73 ± 1.1 kPa
[2]; 293.15 K
  refractive index: 1.3992 ± 0.0004 and 1.3993 ± 0.0004
[2]; 298.15 K
  refractive index: 1.3973 ± 0.0004
[2]; 308.15 K
  refractive index: 1.3932 ± 0.0004
